Earlier results as cited in US11312706B2, “Cyclohexyl acid pyrazole azines as LPA antagonists” (BRISTOL-MYERS SQUIBB COMPANY, priority 2017, dated 2022).

Key:
[1] = system: UUO mice; conditions: cited from earlier work
[2] = system: pancreatic cancer cell lines; conditions: ascites from pancreatic cancer patients; cited from earlier work
[3] = system: mouse epithelial renal cell line, MCT; conditions: MCT cells, co-treatment with LPA; cited from earlier work
[4] = system: highly peritoneal metastatic pancreatic cancer cell line; conditions: cited from earlier work
[5] = system: human foetal lung fibroblasts; conditions: bronchoalveolar lavage samples of IPF subjects; cited from earlier work

**Q.** Which “development of renal fibrosis, profile” value [1] does the source give for `Cc1noc(-c2ccc(CSCCC(=O)O)cc2)c1NC(=O)OC(C)c1ccccc1Cl` (centres unmarked) [Ki16425] here?
**A.** closely resembled the profile of LPA1 (−/−) mice

**Q.** What about the “in vitro migration in response to LPA and peritoneal fluid (ascites)” value [2] of the same compound?
**A.** effectively blocked

**Q.** What about the “induction of CTGF expression by LPA” value [3] of the same compound?
**A.** almost completely suppressed

**Q.** And the “LPA-induced and ascites-induced invasion activity” value [4]?
**A.** blocked

**Q.** What about the fibroblast chemotactic activity [5] of the same compound?
**A.** inhibited
